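Where inhibition never reached the appropriate level, the endpoint shown equals the highest concentration tested. Otherwise, values were interpolated linearly from a five-concentration, 48-hour dose response in 96-well plates. The concentration for 50% growth inhibition is given as GI50.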 Activity calls are given as the source filed them. Rule as the data show it: active = GI50 up to about 1.1 µM and inactive = higher.
How the values were obtained:
Experiment in all cases: NCI tumour cell line growth inhibition, 48 h
A498 = test system: A498
ACHN = test system: ACHN
CAKI-1 = test system: CAKI-1
EKVX = test system: EKVX
HL-60 = test system: HL-60
HT-29 = test system: HT-29
NCI-H226 = test system: NCI-H226
NCI-H460 = test system: NCI-H460
OVCAR-5 = test system: OVCAR-5
RXF 393 = test system: RXF 393
SF-539 = test system: SF-539
SK-MEL-28 = test system: SK-MEL-28
SK-MEL-5 = test system: SK-MEL-5
SNB-19 = test system: SNB-19
SNB-75 = test system: SNB-75
SNB-78 = test system: SNB-78
KM12 = test system: KM12
BT-549 = test system: BT-549
MDA-MB-231 = test system: MDA-MB-231
SR = test system: SR

Measured: GI50

O=C(c1ccccc1)C(c1ccccc1)C1(O)C(=O)Nc2ccccc21 (stereo not given)
inactive: A498 > 100 µM | ACHN > 100 µM | CAKI-1 > 100 µM | EKVX > 100 µM | HL-60 > 100 µM | HT-29 > 100 µM | NCI-H226 > 100 µM | NCI-H460 > 100 µM | OVCAR-5 > 100 µM | RXF 393 > 100 µM | SF-539 > 100 µM | SK-MEL-28 > 100 µM | SK-MEL-5 > 100 µM | SNB-19 > 100 µM | SNB-75 43.6 µM | SNB-78 > 100 µM

O=C(Nc1cccc(NC(=O)c2cc(=O)c3ccccc3o2)n1)c1cc(=O)c2ccccc2o1
inactive: A498 75.5 µM | ACHN 8.32 µM | CAKI-1 > 100 µM | EKVX 57.4 µM | HL-60 32.3 µM | KM12 17.9 µM | NCI-H460 40.4 µM | OVCAR-5 > 100 µM | RXF 393 20.8 µM | SF-539 20.3 µM | SK-MEL-28 62.4 µM | SK-MEL-5 64.9 µM | SNB-19 68.9 µM | SNB-75 38.8 µM | SNB-78 > 100 µM

CC(C)(CN1CCCCC1)C(=O)/C=C/c1ccccc1
inactive: A498 18.5 µM | ACHN 25.8 µM | CAKI-1 17.3 µM | EKVX 7.13 µM | HT-29 7.36 µM | KM12 9.25 µM | NCI-H226 29 µM | NCI-H460 22.4 µM | OVCAR-5 19.9 µM | RXF 393 11.9 µM | SF-539 10.8 µM | SK-MEL-28 15.6 µM | SK-MEL-5 11.9 µM | SNB-19 16.4 µM | SNB-75 11.6 µM | SNB-78 22.5 µM

O=C(CCc1nnc2s/c(=C\c3ccc([N+](=O)[O-])cc3)c(=O)n12)Nc1ccc(Cl)c(Cl)c1
inactive: A498 85.3 µM | ACHN 36.4 µM | CAKI-1 41.9 µM | HL-60 17.3 µM | HT-29 30.3 µM | KM12 16 µM | NCI-H226 14.4 µM | NCI-H460 46.1 µM | OVCAR-5 36.2 µM | RXF 393 18.2 µM | SF-539 17.9 µM | SK-MEL-28 21.8 µM | SK-MEL-5 58.1 µM | SNB-19 72.9 µM | SNB-75 10.4 µM | SNB-78 25.4 µM

CC(=O)O[C@H]1CCN2C(=O)C=CC(OCc3ccccc3)C12 (stereo not given in full)
inactive: A498 > 100 µM | ACHN > 100 µM | CAKI-1 > 100 µM | EKVX > 100 µM | HL-60 > 100 µM | HT-29 > 100 µM | KM12 > 100 µM | NCI-H226 > 100 µM | NCI-H460 > 100 µM | OVCAR-5 > 100 µM | SF-539 > 100 µM | SK-MEL-28 > 100 µM | SK-MEL-5 > 100 µM | SNB-75 > 100 µM | SNB-78 > 100 µM

Oc1ccc(O)c(-n2cccn2)c1
inactive: A498 > 100 µM | ACHN > 100 µM | CAKI-1 19.1 µM | EKVX > 100 µM | HL-60 18.7 µM | HT-29 65.9 µM | KM12 > 100 µM | NCI-H460 > 100 µM | OVCAR-5 88.9 µM | RXF 393 38.1 µM | SF-539 > 100 µM | SK-MEL-28 > 100 µM | SK-MEL-5 > 100 µM | SNB-19 > 100 µM | SNB-75 > 100 µM | SNB-78 58.5 µM

CC1OC(OC2C(O)C(O)C(O)C(O)C2O)C(N)CC1NC(=N)C(=O)O (stereo not given)
inactive: A498 > 100 µM | ACHN > 100 µM | BT-549 > 100 µM | CAKI-1 > 100 µM | EKVX > 100 µM | HL-60 > 100 µM | HT-29 > 100 µM | KM12 > 100 µM | MDA-MB-231 > 100 µM | NCI-H226 > 100 µM | NCI-H460 > 100 µM | OVCAR-5 > 100 µM | RXF 393 > 100 µM | SF-539 > 100 µM | SK-MEL-28 > 100 µM | SK-MEL-5 > 100 µM | SNB-19 > 100 µM | SNB-75 > 100 µM | SR > 100 µM

O=C1CSC(c2ccccc2)N1c1ccc(-n2c(-c3ccccc3)nc3ccccc3c2=O)cc1 (stereo not given)
inactive: A498 > 100 µM | ACHN 47.2 µM | BT-549 > 80.7 µM | CAKI-1 > 100 µM | EKVX > 75.7 µM | HL-60 41.8 µM | HT-29 61.4 µM | KM12 41.1 µM | MDA-MB-231 47.2 µM | NCI-H226 > 77.3 µM | NCI-H460 46.3 µM | OVCAR-5 > 100 µM | RXF 393 > 100 µM | SF-539 65.2 µM | SK-MEL-28 > 80.4 µM | SK-MEL-5 47.4 µM | SNB-19 > 69.2 µM | SNB-75 > 100 µM | SR 26.9 µM

C[n+]1[n-]o/c(=N\N=O)c1-c1cc(-c2/c(=N/N=O)o[n-][n+]2C)cc(-c2/c(=N\N=O)o[n-][n+]2C)c1
inactive: A498 > 100 µM | ACHN > 100 µM | BT-549 > 100 µM | CAKI-1 > 100 µM | EKVX > 100 µM | HL-60 > 100 µM | HT-29 > 100 µM | KM12 > 100 µM | MDA-MB-231 > 100 µM | NCI-H226 > 100 µM | NCI-H460 > 100 µM | OVCAR-5 > 100 µM | RXF 393 > 100 µM | SF-539 > 100 µM | SK-MEL-28 > 100 µM | SK-MEL-5 > 100 µM | SNB-19 > 100 µM | SNB-75 68.1 µM | SR > 100 µM

Cc1ccc(C(=O)NC(C)C)cc1/N=N/N(C)C
inactive: ACHN > 100 µM | CAKI-1 > 100 µM | EKVX > 100 µM | HT-29 > 100 µM | KM12 > 100 µM | NCI-H460 > 100 µM | SF-539 > 100 µM | SK-MEL-28 > 100 µM | SK-MEL-5 > 100 µM | SNB-19 > 100 µM | SNB-78 > 100 µM

C#C[C@]1(O)CC[C@H]2[C@@H]3CCc4cc(OC(=O)c5cccc6cc7ccccc7nc56)ccc4[C@H]3CC[C@@]21C
inactive: A498 > 100 µM | ACHN 49 µM | BT-549 74 µM | CAKI-1 23 µM | EKVX 12.9 µM | HL-60 8.75 µM | HT-29 33.9 µM | KM12 20 µM | MDA-MB-231 25.6 µM | NCI-H226 33.2 µM | NCI-H460 23 µM | OVCAR-5 43.8 µM | RXF 393 44.4 µM | SF-539 31.6 µM | SK-MEL-28 35.9 µM | SK-MEL-5 13.6 µM | SNB-19 50.7 µM | SNB-75 31.2 µM | SR 5.52 µM

CCC1(C)NC(c2cnccn2)=NN1c1ccc(Cl)cc1 (stereo not given)
inactive: A498 > 100 µM | ACHN > 100 µM | BT-549 > 100 µM | CAKI-1 > 100 µM | EKVX > 100 µM | HL-60 48.8 µM | HT-29 88.1 µM | KM12 > 100 µM | MDA-MB-231 > 100 µM | NCI-H226 > 100 µM | NCI-H460 81.7 µM | OVCAR-5 > 100 µM | RXF 393 41.7 µM | SF-539 > 100 µM | SK-MEL-28 > 100 µM | SK-MEL-5 > 100 µM | SNB-19 > 100 µM | SNB-75 19.3 µM | SR 22.1 µM
